Earlier results as cited in patent US20200155636A1, “Medicament and Beverage for Improving Joint and Bone Diseases” (priority 2017, published 2020).

Details: oral application

absorption (small intestine): absorbed in the small intestine
Substance: hyaluronic acid
stability against gastric acid: survives the gastric acid
